Our source for the IC50 values is ChEMBL document CHEMBL1129907, “The SAR of UK-78,282: A novel blocker of human T cell Kv1.3 potassium channels” (Bioorg Med Chem Lett, 1997).

Each structure is given as a SMILES string. Some results are limits rather than exact numbers.

The IC50 is the point on the concentration scale where inhibition reaches its midpoint.

The first assay has as its system T-cell line. In words: In vitro inhibitory potency against human T-cells Rb efflux. The class given is functional, cell-based.
Regarding `COc1ccc(CCC[n+]2ccc(COC(c3ccccc3)c3ccccc3)cc2)cc1`, the IC50 was more than 20000 nM.
Still for that read-out and setting: as for `COc1ccc(CCCN2CCC(CNC(c3ccccc3)c3ccccc3)CC2)cc1`, the figure is 2800 nM; as for `COc1ccc(CCCN2CCC(COC(c3ccc(Br)cc3)c3ccc(Br)cc3)CC2)cc1`, 3200 nM.
`COc1ccc(CCCN2C3CCC2CC(COC(c2ccccc2)c2ccccc2)C3)cc1` (stereo not given) came in with an IC50 of 400 nM.
`CCN1CCC(COC(c2ccccc2)c2ccccc2)CC1` showed a 50% inhibitory concentration (IC50) of more than 20000 nM.
`Clc1ccc(CCCN2CCC(COC(c3ccccc3)c3ccccc3)CC2)cc1Cl` had a 50% inhibitory concentration (IC50) of 2200 nM.
On the same count and under the same terms, in the case of `c1ccc(C(OCC2CCN(CC3CCc4ccccc4C3)CC2)c2ccccc2)cc1` (stereo not given) it was 5600 nM.
For `CCCCCN1CCC(COC(c2ccccc2)c2ccccc2)CC1`, 10800 nM corresponded to half-maximal inhibition (IC50).
Still for that read-out and setting: as for `COc1cccc(CCCN2CCC(COC(c3ccccc3)c3ccccc3)CC2)c1`, the figure is 1500 nM; as for `COc1ccc(CCCN2CCC(CCC(c3ccccc3)c3ccccc3)CC2)cc1`, 200 nM.
For the molecule `COc1ccc(CCCN2CCC(C(O)CC(c3ccccc3)c3ccccc3)CC2)cc1` (stereo not given), the midpoint of inhibition, the IC50, lay at 1500 nM.
Still for that read-out and setting: in the case of `COc1ccc(CCCN2CCC(COCc3ccc(Cl)c(Cl)c3)CC2)cc1` it was 200 nM.
For the molecule `COc1ccc(CC2(CN3CCC(COC(c4ccccc4)c4ccccc4)CC3)CCCCC2)cc1`, the IC50 worked out at 3400 nM.
The same measure, in the same setting: as for `C(#Cc1ccccc1)CN1CCC(COC(c2ccccc2)c2ccccc2)CC1`, the figure is more than 20000 nM.
Consider `CCCN1CCC(COC(c2ccccc2)c2ccccc2)CC1`, for which the half-maximal inhibitory concentration (IC50) came to 17800 nM.
The molecule `COc1ccc(CCCN2CCC(=CCC(c3ccccc3)c3ccccc3)CC2)cc1` registered a half-inhibitory concentration (IC50) of 400 nM. This IC50 lies about 44-fold lower than the previous one.
The same measure, in the same setting: as for `COc1ccc(CCCN2CCC(COCc3ccccc3)CC2)cc1`, the figure is 2100 nM; as for `Clc1ccccc1CCCN1CCC(COC(c2ccccc2)c2ccccc2)CC1`, 800 nM; as for `COc1ccc(CCCN2CCC(COCc3ccccn3)CC2)cc1`, 5900 nM.
The same measure, in the same setting: in the case of `c1ccc(CCCN2CCC(COC(c3ccccc3)c3ccccc3)CC2)cc1` it was 700 nM; in that of `COc1ccc(CCN2CCC(COC(c3ccccc3)c3ccccc3)CC2)cc1`, 2900 nM.
Same read-out and setting: in the case of `COc1ccc(CCCN2CCC(COC(c3ccc(Cl)cc3)c3ccc(Cl)cc3)CC2)cc1` it was 1100 nM; in that of `CCCCCCCCCN1CCC(COC(c2ccccc2)c2ccccc2)CC1`, 700 nM.
Turning to `COc1ccc(CCCN2CCN(CCC(c3ccccc3)c3ccccc3)CC2)cc1`, the concentration for half-maximal inhibition (IC50) came out at 2700 nM.
In turn, `CN1CCC(COC(c2ccccc2)c2ccccc2)CC1` registered an IC50 of more than 20000 nM.
On the same count and under the same terms, as for `CCCCCCCCN1CCC(COC(c2ccccc2)c2ccccc2)CC1`, the figure is 700 nM; as for `COc1ccc(/C=C/CN2CCC(COC(c3ccccc3)c3ccccc3)CC2)cc1`, 4300 nM; as for `COc1ccc(CCCN2CCC(CO)CC2)cc1`, more than 20000 nM.
For the molecule `CCCCCCCCCCN1CCC(COC(c2ccccc2)c2ccccc2)CC1`, the half-inhibitory concentration (IC50) stood at 2600 nM.
The same measure, in the same setting: in the case of `COc1ccc(CCCN2CCC(COCc3ccc(Cl)cc3)CC2)cc1` it was 500 nM; in that of `Clc1ccc(CCCN2CCC(COC(c3ccccc3)c3ccccc3)CC2)cc1`, 500 nM.
Still for that read-out and setting: as for `COc1ccccc1CCCN1CCC(COC(c2ccccc2)c2ccccc2)CC1`, the figure is 2400 nM; as for `COc1ccc(CCCN2CCC(COC(c3ccccc3)c3ccccc3)CC2)cc1`, 400 nM; as for `CCCCN1CCC(COC(c2ccccc2)c2ccccc2)CC1`, 14000 nM.
The same measure, in the same setting: as for `Cc1ccc(CCCN2CCC(COC(c3ccccc3)c3ccccc3)CC2)cc1`, the figure is 200 nM; as for `COc1ccc(CCCN2CCC(COC(c3ccccc3)c3ccc(Cl)cc3)CC2)cc1` (stereo not given), 200 nM.
For `COc1ccc(CCCN2CCC(COCC3CCCCC3)CC2)cc1`, the IC50 amounted to 3000 nM.
Still for that read-out and setting: in the case of `CCCCCCCN1CCC(COC(c2ccccc2)c2ccccc2)CC1` it was 500 nM.
Still for that read-out and setting: as for `CCCCCCN1CCC(COC(c2ccccc2)c2ccccc2)CC1`, the figure is 5500 nM.

For a further assay, the system named is T-cell line. The experiment in a line: In vitro inhibition of Rb efflux in human T-cells; 1-10. Format: functional, cell-based.
In turn, `CCCCCCC[N+](CC)(CC)CCCCc1ccc(Cl)cc1` [CLOFILIUM] had a 50% inhibitory concentration (IC50) of 1000 nM.
On the same count and under the same terms, in the case of `CN(CCOc1ccc(NS(C)(=O)=O)cc1)CCc1ccc(NS(C)(=O)=O)cc1` [DOFETILIDE] it was 1000 nM; in that of `COc1ccc(Cl)cc1C(=O)NCCc1ccc(S(=O)(=O)NC(=O)NC2CCCCC2)cc1` [GLYBURIDE], 1000 nM; in that of `CC(C)NCC(O)c1ccc(NS(C)(=O)=O)cc1` (stereo not given) [SOTALOL], 1000 nM.
Same read-out and setting: in the case of `CC[N+](CC)(CC)CC` [TETRYLAMMONIUM] it was 1000 nM.

In the next assay the target is Potassium voltage-gated channel subfamily A member 3 (Homo sapiens, UniProt P22001). In words: In vitro inhibition of human T-cells voltage-gated potassium channel subunit Kv1.3. Format: cell-based, T-cell.
Chain of Potassium voltage-gated channel subfamily A member 3 (P22001 whole entry): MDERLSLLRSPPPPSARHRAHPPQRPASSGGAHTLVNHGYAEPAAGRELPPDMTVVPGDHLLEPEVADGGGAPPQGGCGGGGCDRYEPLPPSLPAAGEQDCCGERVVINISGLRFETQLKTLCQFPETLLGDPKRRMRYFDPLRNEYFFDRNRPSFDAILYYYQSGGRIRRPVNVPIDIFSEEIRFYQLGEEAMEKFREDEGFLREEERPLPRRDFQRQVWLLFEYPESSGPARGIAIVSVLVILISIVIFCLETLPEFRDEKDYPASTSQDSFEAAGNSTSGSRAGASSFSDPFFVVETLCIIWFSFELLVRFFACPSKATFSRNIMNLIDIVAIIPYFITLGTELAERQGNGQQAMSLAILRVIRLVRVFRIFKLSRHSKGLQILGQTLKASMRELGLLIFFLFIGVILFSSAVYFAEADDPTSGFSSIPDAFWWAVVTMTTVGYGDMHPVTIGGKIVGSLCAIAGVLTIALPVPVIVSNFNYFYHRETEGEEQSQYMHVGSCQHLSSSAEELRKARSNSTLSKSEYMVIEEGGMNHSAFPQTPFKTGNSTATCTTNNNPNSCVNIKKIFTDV
For the molecule `COc1ccc(CCCN2CCC(COC(c3ccccc3)c3ccccc3)CC2)cc1`, the IC50 is 200 nM.
